In patent publication US7109203B2, “Sulfonamide derivatives” (Novartis AG, priority 2001, dated 2006):
Where a SMILES comes first, the peptide text is derived from it. [ ]: non-standard residue; d: D form. Oic = O=C(O)[C@@H]1C[C@@H]2CCCC[C@@H]2N1; Hyp = O=C(O)[C@@H]1C[C@@H](O)CN1; dTic = O=C(O)[C@H]1Cc2ccccc2CN1; 2Thi = N[C@@H](Cc1cccs1)C(=O)O

Target: T1, human bradykinin B1 receptor (Homo sapiens, UniProt P46663)
T1 construct: To upregulate expression of the B1 receptor the cells are treated with 100 units/ml of IL-1β; endogenous in cells; host or cells: WI-38 cells treated with 100 units/ml IL-1β for 3 hours
T1 sequence (P46663 1-353): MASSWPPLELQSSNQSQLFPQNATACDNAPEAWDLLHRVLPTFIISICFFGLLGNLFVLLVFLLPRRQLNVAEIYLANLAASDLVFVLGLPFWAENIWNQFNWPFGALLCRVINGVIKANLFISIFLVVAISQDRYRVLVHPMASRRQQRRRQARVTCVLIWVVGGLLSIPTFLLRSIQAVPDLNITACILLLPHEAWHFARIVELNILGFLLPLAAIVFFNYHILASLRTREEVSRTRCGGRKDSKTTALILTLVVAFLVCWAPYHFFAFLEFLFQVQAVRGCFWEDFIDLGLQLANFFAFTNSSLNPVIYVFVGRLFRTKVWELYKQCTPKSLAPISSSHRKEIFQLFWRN
Test: Test I: Bradykinin Receptor Binding Assay ([3H]-desArg10kallidin displacement, IL-1β-treated WI-38 cells)
Settings: displacement of [3H]-desArg10kallidin, KI from IC50 by Cheng-Prussoff equation
Method: WI-38 cells are grown in Dulbecco's Modified Eagle Medium s supplemented with 1% non-essential amino acids, 2 mM L-glutamine, 100 IU/ml penicillin, 100 μg/ml streptomycin and 10% foetal calf serum. The cells are grown in 175 cm^2 tissue culture flasks and split approximately 1–2 times a week at a ratio of 1:2 using trypsin to detach the cells. WI-38 cells are plated onto 24 well plates at approximately 50,000 cells per well and grown overnight. To upregulate expression of the B1 receptor the cells are treated with 100 units/ml of IL-1β for 3 hours prior to the assay. The binding buffer is 10 mM HEPES in Hank's Balanced Salt solution pH 7.4 plus 1 mM phenanthroline and 0.14 mg/ml bacitracin. […] Non-specific binding is determined with 3 μM desArg^10kallidin. […] The cells are solubilised with 0.2% SDS and the amount of radioactivity in the samples determined by liquid scintillation counting. […]
Results are calculated by subtracting the value for non-specific binding from all values and calculating the amount of binding for each concentration of compound as a percentage of the specific binding with no compound. The IC50 values are calculated in ORIGIN using a logistic fit. KI values are calculated from the IC50 values using the Cheng-Prussoff equation (KI=IC50/(1+([RL]/Kd)) where [RL] is the radioligand concentration.

| SMILES | Ki [nM] |
| --- | --- |
| O=C(O)CN(CCOc1ccc2c(c1)CCC2)S(=O)(=O)c1ccc(Br)cc1Cl [Example 5, {(4-bromo-2-chloro-benzenesulfonyl)-[2-(indan-5-yloxy)-ethyl]-amino}-acetic acid] | ~300 |
| N=C(N)NCCC[C@@H](N)C(=O)N[C@@H](CCCNC(=N)N)C(=O)N1CCC[C@H]1C(=O)N1C[C@H](O)C[C@H]1C(=O)NCC(=O)N[C@@H](Cc1cccs1)C(=O)N[C@@H](CO)C(=O)N1Cc2ccccc2C[C@@H]1C(=O)N1[C@H](C(=O)O)C[C@@H]2CCCC[C@@H]21 [desArg^10HOE140, D-Arg-[Hyp^3, Thi^5, D-Tic^7, Oic^8]desArg^9 bradykinin] (H-[dR]RP[Hyp]G[2Thi]S[dTic][Oic]-OH; N-terminus and C-terminus assumed) | 63 |
